# Results from US20140357487A1, “PLANTS HAVING INCREASED TOLERANCE TO HERBICIDES” (BASF SE, priority 2011, published 2014).
# Experiments:
# [1] = system: Arabidopsis wildtype control plants; test: Arabidopsis growth inhibition in 48-well plates, wildtype control; assay type: in vivo, Arabidopsis thaliana; conditions: plant growth IC50 of line divided by that of wildtype plants
# Experimental: Depending on the species, the plants are kept at 10-25° C. or 20-35° C. The test period extends over 3 weeks. During this time, the plants are tended and their response to the individual treatments is evaluated. Herbicide injury evaluations are taken at 2 and 3 weeks after treatment. Plant injury is rated on a scale of 0 to 9, 0 being no injury and 9 being complete death. Tolerance to coumarone-derivative herbicides can also be assessed in Arabidopsis. In this case transgenic Arabidopsis thaliana plants are assayed for improved tolerance to coumarone-derivative herbicides in 48-well plates. Seeds are surface sterilized by stirring for 5 min in ethanol+water (70+30 by volume), rinsing one time with ethanol+water (70+30 by volume) and two times with a sterile, deionized water. The seeds are resuspended in 0.1% agar dissolved in water (w/v). Four to five seeds per well are plated on solid nutrient medium consisting of half-strength Murashige Skoog nutrient solution, pH 5.8 (Murashige and Skoog (1962) Physiologia Plantarum 15: 473-497). […] Seven to ten days after seeding growth inhibition is evaluated by comparison to wild type plants. Tolerance factor is calculated by dividing the plant growth IC50 value of transgenic plants containing a HPPD and/or HST sequence by that of wildtype plants. […]
# [2] = system: transgenic soybean plants, Arabidopsis HPPD, event SDS-9857; test: Greenhouse testing of transgenic soybean plants, Arabidopsis HPPD; assay type: in vivo, Glycine max; conditions: soybean SDS-9857, 5 days after herbicide treatment, average of 8 T1
# From the text: (§1) Various methods for the production of stably transformed plants are well known in the art. Coumarone-derivative herbicide tolerant soybean (Glycine max) or corn (Zea mays) plants can be produced by a method described by Olhoft et al. (US patent 2009/0049567). Briefly, HPPD or HST encoding polynucleotides are cloned into a binary vector using standard cloning techniques as described by Sambrook et al. (Molecular cloning (2001) Cold Spring Harbor Laboratory Press). The final vector construct contains an HPPD or HST encoding sequence flanked by a promoter sequence (e.g. the ubiquitin promoter (PcUbi) sequence) and a terminator sequence (e.g. the nopaline synthase terminator (NOS) sequence) and a resistance marker gene cassette (e.g. AHAS) (FIG. 2). Optionally, the HPPD or HST gene can provide the means of selection. Agrobacterium-mediated transformation is used to introduce the DNA into soybean's axillary meristem cells at the primary node of seedling explants. After inoculation and co-cultivation with Agrobacteria, the explants are transferred to shoot induction medium without selection for one week. The explants are subsequently transferred to shoot induction medium with 1-3 μM imazapyr (Arsenal) for 3 weeks to select for transformed cells. Explants with healthy callus/shoot pads at the primary node are then transferred to shoot elongation medium containing 1-3 μM imazapyr until a shoot elongates or the explant dies. After regeneration, transformants are transplanted to soil in small pots, placed in growth chambers (16 hr day/8 hr night; 25° C. day/23° C. night; 65% relative humidity; 130-150 mE m−2 s−1) and subsequently tested for the presence of the T-DNA via Taqman analysis. After a few weeks, healthy, transgenic positive, single copy events are transplanted to larger pots and allowed to grow in the growth chamber. Transformation of corn plants is done by a method described by McElver and Singh (WO 2008/124495). Plant transformation vector constructs containing HPPD or HST sequences are introduced into maize immature embryos via Agrobacterium-mediated transformation. Transformed cells are selected in selection media supplemented with 0.5-1.5 μM imazethapyr for 3-4 weeks. Transgenic plantlets are regenerated on plant regeneration media and rooted afterwards. Transgenic plantlets are subjected to TaqMan analysis for the presence of the transgene before being transplanted to potting mixture and grown to maturity in greenhouse. Arabidopsis thaliana is transformed with HPPD or HST sequences by floral dip method as described by McElver and Singh (WO 2008/124495). Transgenic Arabidopsis plants are subjected to Tag Man analysis for analysis of the number of integration loci. Transformation of Oryza sativa (rice) are done by protoplast transformation as described by Peng et al. (U.S. Pat. No. 6,653,529)
# (§2) Transgenic plants expressing heterologous HPPD or HST enzymes are tested for tolerance against coumarone-derivative herbicides in greenhouse experiments.
# (§3) For post emergence treatment, the test plants are first grown to a height of 3 to 15 cm, depending on the plant habit, and only then treated with the herbicides. For this purpose, the test plants are either sown directly and grown in the same containers, or they are first grown separately and transplanted into the test containers a few days prior to treatment.
# (§4) Depending on the species, the plants are kept at 10-25° C. or 20-35° C. […] During this time, the plants are tended and their response to the individual treatments is evaluated. […] Tolerance to coumarone-derivative herbicides can also be assessed in Arabidopsis. In this case transgenic Arabidopsis thaliana plants are assayed for improved tolerance to coumarone-derivative herbicides in 48-well plates. Seeds are surface sterilized by stirring for 5 min in ethanol+water (70+30 by volume), rinsing one time with ethanol+water (70+30 by volume) and two times with a sterile, deionized water. […]
# [3] = system: transgenic soybean plants, Arabidopsis P336A E363Q I393L L385V, event SDS-9999; test: Greenhouse testing of transgenic soybean plants, Arabidopsis P336A E363Q I393L L385V; assay type: in vivo, Glycine max; conditions: soybean SDS-9999, 5 days after herbicide treatment, average of 8 T1
# From the text: as §1, §2, §3
# (§5) Depending on the species, the plants are kept at 10-25° C. or 20-35° C. The test period extends over 3 weeks. During this time, the plants are tended and their response to the individual treatments is evaluated. […] Tolerance to coumarone-derivative herbicides can also be assessed in Arabidopsis. In this case transgenic Arabidopsis thaliana plants are assayed for improved tolerance to coumarone-derivative herbicides in 48-well plates. Seeds are surface sterilized by stirring for 5 min in ethanol+water (70+30 by volume), rinsing one time with ethanol+water (70+30 by volume) and two times with a sterile, deionized water. […]
# [4] = system: transgenic corn plants, Arabidopsis Q293S, event SDM-71864; test: Greenhouse testing of transgenic corn plants, Arabidopsis Q293S; assay type: in vivo, Zea mays; conditions: corn SDM-71864, 5 days after herbicide treatment, average of 8 T1
# From the text: as §1, §2, §3, §4
# [5] = system: transgenic corn plants, Arabidopsis I393L L385V, event SDM-71855; test: Greenhouse testing of transgenic corn plants, Arabidopsis I393L L385V; assay type: in vivo, Zea mays; conditions: corn SDM-71855, 5 days after herbicide treatment, average of 8 T1
# From the text: as §1, §2, §3, §5
smiles,measurement,setting,value
"CC1=NOC(c2c(Cl)ccc(C3=C(O)c4ncccc4C(C)(C)S3(=O)=O)c2Cl)C1 (centres unmarked) [Inhibitor 1, 7-[2,4-dichloro-3-(3-methyl-4,5-dihydroisoxazol-5-yl)phenyl]-5,5-dimethyl-6,6-dioxo-thiopyrano[4,3-b]pyridin-8-ol]",Tolerance factor,[1],1
"CC1(C)c2cccnc2C(O)=C(c2ccc(Cl)nc2Cl)S1(=O)=O [Inhibitor 2, 7-(2,6-dichloro-3-pyridyl)-5,5-dimethyl-6,6-dioxo-thiopyrano[4,3-b]pyridin-8-ol]",Tolerance factor,[1],1
same,"Injury evaluation, scale of 1-100, bleaching phenotype",[2]; 2.5 g/ha,1
same,"Injury evaluation, scale of 1-100, bleaching phenotype",[2]; 10 g/ha,1
same,"Injury evaluation, scale of 1-100, bleaching phenotype",[2]; 40 g/ha,2
same,"Injury evaluation, scale of 1-100, bleaching phenotype",[3]; 2.5 g/ha,6
same,"Injury evaluation, scale of 1-100, bleaching phenotype",[3]; 10 g/ha,5
same,"Injury evaluation, scale of 1-100, bleaching phenotype",[3]; 40 g/ha,15
same,"Injury evaluation, scale of 1-100, bleaching phenotype",[4]; 2.5 g/ha,4
same,"Injury evaluation, scale of 1-100, bleaching phenotype",[4]; 10 g/ha,17
same,"Injury evaluation, scale of 1-100, bleaching phenotype",[4]; 40 g/ha,15
same,"Injury evaluation, scale of 1-100, bleaching phenotype",[5]; 2.5 g/ha,7
same,"Injury evaluation, scale of 1-100, bleaching phenotype",[5]; 10 g/ha,7
same,"Injury evaluation, scale of 1-100, bleaching phenotype",[5]; 40 g/ha,25
"Cc1c(C(=O)c2cnn(C)c2O)ccc(S(C)(=O)=O)c1C1=NOCC1 [Topramezone, reference compound]","Injury evaluation, scale of 1-100, bleaching phenotype",[2]; 6.25 g/ha,1
same,"Injury evaluation, scale of 1-100, bleaching phenotype",[2]; 25 g/ha,10
same,"Injury evaluation, scale of 1-100, bleaching phenotype",[2]; 100 g/ha,19
same,"Injury evaluation, scale of 1-100, bleaching phenotype",[3]; 6.25 g/ha,7
same,"Injury evaluation, scale of 1-100, bleaching phenotype",[3]; 25 g/ha,18
same,"Injury evaluation, scale of 1-100, bleaching phenotype",[3]; 100 g/ha,24
same,"Injury evaluation, scale of 1-100, bleaching phenotype",[4]; 6.25 g/ha,1
same,"Injury evaluation, scale of 1-100, bleaching phenotype",[4]; 25 g/ha,4
same,"Injury evaluation, scale of 1-100, bleaching phenotype",[4]; 100 g/ha,6
same,"Injury evaluation, scale of 1-100, bleaching phenotype",[5]; 6.25 g/ha,0
same,"Injury evaluation, scale of 1-100, bleaching phenotype",[5]; 25 g/ha,0
same,"Injury evaluation, scale of 1-100, bleaching phenotype",[5]; 100 g/ha,4
